From the supplement of paper PMC10307832

How the values were obtained:
Test in all cases: relative viability (nuclei count vs DMSO), 5 days (fraction); higher = more cells survive
Tivantinib = compound: O=C1NC(=O)[C@@H](c2cn3c4c(cccc24)CCC3)[C@@H]1c1c[nH]c2ccccc12 [Tivantinib]
Outline: (§1)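 Vehicle-anchored 1536-well plates of lung cancer cell lines, held overnight at 37 °C, were pinned with five library-drug doses (not always all listed) spaced by √10. No medium change followed over the next 5 days, after which the cells were fixed, permeabilised and Hoechst-stained together and imaged at 4×. Nuclei were counted with MetaXpress, and viability is treated-well nuclei over vehicle-well nuclei, taken as a median across plates. Plates passed with control CV below 25% and at least one doubling.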

Crenolanib = compound: CC1(COc2ccc3c(c2)ncn3-c2ccc3cccc(N4CCC(N)CC4)c3n2)COC1 [Crenolanib]
Outline: as §1

Tivantinib + Pemetrexed = compound: O=C1NC(=O)[C@@H](c2cn3c4c(cccc24)CCC3)[C@@H]1c1c[nH]c2ccccc12 [Tivantinib] + Nc1nc2[nH]cc(CCc3ccc(C(=O)N[C@@H](CCC(=O)O)C(=O)O)cc3)c2c(=O)[nH]1 [Pemetrexed] (partner 0.2 µM)
Outline: (§2)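 One day after seeding in 1536-well plates, lung cancer cell lines were dosed by pin tool. Dosing was either single-drug or a fixed anchor-drug dose plus five library-drug doses (not always all listed) in √10 steps. After 5 days, nuclei were stained in one fix-and-stain step and counted on 4× images, and relative viability is the nuclei count of treated wells over that of vehicle wells, given as the median of duplicate plates.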

Crenolanib + OSI-027 = compound: CC1(COc2ccc3c(c2)ncn3-c2ccc3cccc(N4CCC(N)CC4)c3n2)COC1 [Crenolanib] + COc1cccc2cc(-c3nc([C@H]4CC[C@H](C(=O)O)CC4)n4ncnc(N)c34)[nH]c12 [OSI-027] (partner 0.5 µM)
Outline: as §2

Row | Cell Line | relative viability (Tivantinib; 0.01 µM) | relative viability (Tivantinib; 0.03162 µM) | relative viability (Tivantinib; 0.1 µM) | relative viability (Tivantinib; 0.3162 µM) | relative viability (Crenolanib; 0.01 µM) | relative viability (Crenolanib; 0.03162 µM) | relative viability (Crenolanib; 0.1 µM) | relative viability (Crenolanib; 0.3162 µM) | relative viability (Crenolanib; 1 µM) | relative viability (Tivantinib + Pemetrexed; first compound 0.01 µM) | relative viability (Tivantinib + Pemetrexed; first compound 0.03162 µM) | relative viability (Tivantinib + Pemetrexed; first compound 0.1 µM) | relative viability (Tivantinib + Pemetrexed; first compound 0.3162 µM) | relative viability (Crenolanib + OSI-027; first compound 0.01 µM) | relative viability (Crenolanib + OSI-027; first compound 0.03162 µM) | relative viability (Crenolanib + OSI-027; first compound 0.1 µM) | relative viability (Crenolanib + OSI-027; first compound 0.3162 µM) | relative viability (Crenolanib + OSI-027; first compound 1 µM)
1 | HCC-366 | 1.02 | 1.03 | 0.994 | 0.955 | 1.03 | 1.03 | 0.958 | 1.05 | 0.998 | 0.163 | 0.145 | 0.148 | 0.149 | 0.978 | 0.861 | 0.837 | 0.893 | 0.75
2 | HCC-827 | 1.06 | 1.07 | 1.04 | 0.765 | 1.08 | 1.02 | 1.03 | 1.04 | 0.958 | 0.251 | 0.257 | 0.272 |  | 0.793 | 0.691 | 0.742 | 0.885 | 0.821
3 | HOP-62 | 0.975 | 0.787 | 0.972 | 1.02 | 0.986 | 1.02 | 0.977 | 1.1 | 0.933 | 0.333 | 0.29 | 0.368 | 0.247 | 0.868 | 0.833 | 0.872 | 1.03 | 0.722
4 | IA-LM | 0.956 | 0.897 | 0.864 | 0.978 | 1.1 | 0.888 | 0.852 | 1.07 | 1.1 |  |  |  |  |  |  |  |  | 
5 | LC-2-ad | 0.977 | 0.933 | 0.934 | 1.01 | 1.01 | 0.982 | 0.94 | 0.976 | 0.866 | 0.3 | 0.252 | 0.276 | 0.259 | 0.939 | 0.793 | 0.792 | 0.706 | 0.554
6 | LCLC-97TM1 | 1.02 | 0.813 | 0.961 | 0.871 | 1.12 | 0.903 | 0.93 | 1.05 | 0.921 | 0.148 | 0.165 | 0.157 | 0.191 | 0.601 | 0.51 | 0.469 | 0.667 | 0.374
7 | LCLC-103H | 0.895 | 0.842 | 0.963 | 0.951 | 1.01 | 1.01 | 0.892 | 0.983 | 0.92 | 0.472 | 0.368 | 0.406 | 0.432 | 0.443 | 0.507 | 0.397 | 0.466 | 0.384
8 | LK-2 | 1.04 |  | 0.892 | 0.89 | 0.981 | 1.04 | 0.979 | 1.14 | 0.898 | 0.261 | 0.286 | 0.276 | 0.244 | 0.208 | 0.195 | 0.233 | 0.17 | 0.183
9 | LOU-NH91 | 0.932 | 0.946 | 1.02 | 0.747 | 1.02 | 0.939 | 0.929 | 0.891 | 0.906 | 0.394 | 0.428 | 0.4 | 0.468 | 0.765 | 0.729 | 0.642 | 0.717 | 0.624
10 | LU99A | 1.06 | 0.76 | 0.909 | 1.01 | 1.1 | 0.974 | 1.04 | 1 | 1.02 | 0.173 | 0.201 | 0.16 | 0.178 | 0.305 | 0.318 | 0.257 | 0.331 | 0.264
11 | LXF-289 | 1.03 | 1.03 | 0.977 | 1.01 | 0.964 | 0.996 | 0.97 | 1.01 | 0.976 | 0.925 | 0.501 | 0.896 | 0.925 | 0.844 | 0.764 | 0.752 | 0.786 | 0.706
12 | NCI-H23 | 0.975 | 0.762 | 0.982 | 1 | 1.03 | 0.929 | 0.911 | 1 | 0.766 | 0.688 | 0.653 | 0.646 | 0.715 | 0.689 | 0.649 | 0.594 | 0.783 | 0.351
13 | NCI-H322M | 0.958 | 0.865 | 0.928 |  | 0.936 | 0.911 | 0.953 | 0.811 | 0.912 | 0.682 | 0.614 | 0.588 |  | 0.648 | 0.574 | 0.575 | 0.634 | 0.534
14 | NCI-H358 | 0.94 | 0.909 | 0.865 | 0.355 | 1.03 | 1.04 | 0.856 | 0.924 | 0.672 | 0.178 | 0.177 | 0.191 | 0.167 | 0.849 | 0.777 | 0.675 | 0.744 | 0.565
15 | NCI-H441 | 0.902 | 1.22 | 0.9 | 0.939 | 1.08 | 1.11 | 0.987 | 1.13 | 0.928 | 0.294 | 0.254 | 0.254 | 0.282 | 0.929 | 0.6 | 0.507 | 0.539 | 0.463
16 | NCI-H460 | 0.986 | 0.971 | 0.98 | 0.999 | 1 | 0.998 | 0.975 | 0.995 | 0.956 | 0.059 | 0.0663 | 0.0596 | 0.0576 | 0.825 | 0.685 | 0.682 | 0.752 | 0.598
17 | NCI-H727 | 0.941 | 0.897 | 0.802 | 0.631 | 0.949 | 1.05 | 0.873 | 0.943 | 0.909 |  |  |  |  | 0.782 | 0.649 | 0.731 | 0.614 | 0.431
18 | NCI-H1299 | 0.998 | 0.986 | 0.998 | 1.03 | 1.01 | 0.995 | 0.982 | 1.02 | 0.997 |  |  |  |  |  |  |  |  | 
19 | NCI-H1623 | 0.978 | 0.961 | 0.911 |  | 1.08 | 0.968 | 0.876 | 1.01 | 0.94 |  |  |  |  | 0.434 | 0.405 | 0.418 | 0.437 | 0.387
20 | NCI-H1703 | 1.22 | 0.923 | 0.895 | 0.795 | 0.948 | 0.759 | 0.534 | 0.313 | 0.21 |  |  |  |  |  |  |  |  | 
